Data taken from patent US7109338B2, “1,2-disubstituted 1,4-dihydro-4-oxoquinoline compounds” (priority 1999, dated 2006).
Values after ≈ are worked out from the molar mass of the structure shown.

Tests used:
[1] = system: Poliovirus type 1 (Polio 1, Sabin); assay: microbe, parasite or virus in culture; format: cell-based
[2] = system: echovirus type 11 (Echo 11, Gregory); assay: In vitro anti-picornavirus activity (MTT), Echo 11; format: cell-based; details: HeLa-S3 cells, MTT method, 37° C.
[3] = system: coxsackievirus type A7 (CA7); assay: In vitro anti-picornavirus activity (MTT), CA7; format: cell-based; details: HeLa-S3 cells, MTT method, 37° C.
[4] = system: coxsackievirus type B4 (CB4,JVB); assay: In vitro anti-picornavirus activity (MTT), CB4; format: cell-based; details: HeLa cells, MTT method, 37° C.
[5] = system: human rhinovirus type 1B (HRV 1B, B632); assay: Anti-rhinovirus activity (MTT), HRV1B; format: cell-based; details: HeLa (Ohio strain) cells, MTT method, 33° C.
HRV 2 (HGP) = assay: Anti-rhinovirus activity (MTT), HRV2; format: cell-based, human rhinovirus; details: HeLa (Ohio strain) cells, MTT method, 33° C.
HRV 89 (41617-Gallo) = assay: Anti-rhinovirus activity (MTT), HRV89; format: cell-based, human rhinovirus; details: HeLa (Ohio strain) cells, MTT method, 33° C.
HeLa cells = assay: Cytotoxicity (MTT, without virus), HeLa; details: HeLa, no virus, incubated for 4 days
HeLa-S3 cells = assay: Cytotoxicity (MTT, without virus), HeLa-S3; details: HeLa-S3, no virus, incubated for 4 days
HeLa (Ohio strain)cells = assay: Cytotoxicity (MTT, without virus), HeLa(Ohio); details: HeLa(Ohio), no virus, incubated for 4 days

Structure (SMILES)	IC50 Polio 1 [1] [µg/mL]	IC50 Echo 11 [2] [µg/mL]	IC50 CA7 [3] [µg/mL]	IC50 CB4 [4] [µg/mL]	IC50 HRV1B [5] [µg/mL]	IC50 HRV2 (HRV 2 (HGP)) [µg/mL]	IC50 HRV89 (HRV 89 (41617-Gallo)) [µg/mL]	Cytotoxicity CC50 HeLa (HeLa cells) [µg/mL]	Cytotoxicity CC50 HeLa-S3 (HeLa-S3 cells) [µg/mL]	Cytotoxicity CC50 HeLa(Ohio) (HeLa (Ohio strain)cells) [µg/mL]
CCCc1ccc2c(c1)c(=O)c(C)c(-c1ccccc1)n2CC [Compound A30]	1.0 (≈ 3.27 µM)	0.42 (≈ 1.38 µM)	1.2 (≈ 3.93 µM)	1.8 (≈ 5.89 µM)	1.6 (≈ 5.24 µM)	0.48 (≈ 1.57 µM)	1.0 (≈ 3.27 µM)	6.0	6.5	5.8
CCCOc1ccc2c(c1)c(=O)c(C)c(-c1ccccc1)n2CC [Compound A32]	0.93 (≈ 2.89 µM)	0.40 (≈ 1.24 µM)	1.9 (≈ 5.91 µM)	>3.3	1.0 (≈ 3.11 µM)	0.55 (≈ 1.71 µM)	0.77 (≈ 2.4 µM)	9.7	>10	>10
CCn1c(-c2cccc(F)c2)c(C)c(=O)c2cc(C(C)C)ccc21 [Compound A60]	1.1 (≈ 3.4 µM)	0.52 (≈ 1.61 µM)	2.5 (≈ 7.73 µM)	2.8 (≈ 8.66 µM)	0.59 (≈ 1.82 µM)	0.52 (≈ 1.61 µM)	1.1 (≈ 3.4 µM)	5.3	7.0	5.7
CC(C)c1ccc2c(c1)c(=O)cc(-c1ccc(Cl)c(Cl)c1)n2C [Compound A61]	0.73 (≈ 2.11 µM)	0.40 (≈ 1.16 µM)	>4	>4	0.64 (≈ 1.85 µM)	0.65 (≈ 1.88 µM)	0.38 (≈ 1.1 µM)	>4	>4	>4
CCn1c(-c2cccc(OC)c2)c(C)c(=O)c2cc(C(C)C)ccc21 [Compound A78]	1.3 (≈ 3.88 µM)	1.2 (≈ 3.58 µM)	7.1 (≈ 21.2 µM)	2.6 (≈ 7.75 µM)	5.6 (≈ 16.7 µM)	1.7 (≈ 5.07 µM)	2.9 (≈ 8.65 µM)	>8	>8	>8
COc1ccc(-c2c(C)c(=O)c3cc(C(C)C)ccc3n2C)cc1 [Compound A81]	0.78 (≈ 2.43 µM)	0.52 (≈ 1.62 µM)	0.78 (≈ 2.43 µM)	2.2 (≈ 6.84 µM)	1.7 (≈ 5.29 µM)	0.86 (≈ 2.68 µM)	0.55 (≈ 1.71 µM)	6.5	7.6	5.8
Cc1c(-c2ccccc2)n(-c2ccccc2F)c2ccc(C(C)C)cc2c1=O [Compound A321]	–	–	–	–	0.60 (≈ 1.62 µM)	0.056 (≈ 0.151 µM)	0.066 (≈ 0.178 µM)	–	–	>1
